Kd and IC50 data for one molecule are collected here from patent publication US20250059188A1, “ARYLSULPHONAMIDE COMPOUNDS” (Anaxis Pharma Pty Ltd, priority 2021, published 2025).

SMILES strings stand for the structures.

One assay concerns the target mouse MLKL (full length) (Mus musculus (Mouse), UniProt Q9D2Y4). The assay can be described thus: KINOMEscan binding assay, mouse MLKL (full length). The conditions noted are these: equilibrium dissociation constant. The method, then:
Binding affinity of the test compounds for human MLKL (full length), mouse MLKL (full length), human RIPK1 and human RIPK3 was determined using the KINOMEscan™ technology developed by DiscoverX (USA; http://www.discoverx.com). The assay was conducted according to manufacturer instructions.
Kinase assays. For most assays, kinase-tagged T7 phage strains were grown in parallel in 24-well blocks in an E. coli host derived from the BL21 strain. E. coli were grown to log-phase and infected with T7 phage from a frozen stock (multiplicity of infection=0.4) and incubated with shaking at 32° C. until lysis (90-150 minutes). The lysates were centrifuged (6,000×g) and filtered (0.2 μm) to remove cell debris. The remaining kinases were produced in HEK-293 cells and subsequently tagged with DNA for qPCR detection. […] The liganded beads were blocked with excess biotin and washed with blocking buffer (SeaBlock (Pierce), 1% BSA, 0.05% Tween 20, 1 mM DTT) to remove unbound ligand and to reduce non-specific phage binding. […] All reactions were performed in polypropylene 384-well plates in a final volume of 20 μL. […] The kinase concentration in the eluates was measured by qPCR.
An 11-point 3-fold serial dilution of each test compound was prepared in 100% DMSO at 100× final test concentration and subsequently diluted to 1× in the assay (final DMSO concentration=1%). Most Kos were determined using a compound top concentration=30,000 nM.
KD for each test compound was calculated with a standard dose-response curve using the Hill equation (equation (1)): […]
The Hill Slope was set to −1.
Curves were fitted using a non-linear least square fit with the Levenberg-Marquardt algorithm.

Another assay has as its target human MLKL (full length) (Homo sapiens (Human), UniProt Q8NB16). The experiment in a line: KINOMEscan binding assay, human MLKL (full length). The conditions noted are these: equilibrium dissociation constant. In a few lines:
(§1)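 Tagged kinase + immobilized ligand beads + compound; eluted kinase quantified by qPCR. Kinase source: T7 phage lysate (BL21-derived E. coli, 32 °C) or HEK-293 with DNA tag. 11-pt 3-fold series, 1% DMSO, top 30,000 nM (most). Hill fit, slope −1 → Kd.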

A further assay has as its target human RIPK1 (Homo sapiens (Human), UniProt Q13546). The assay can be described thus: KINOMEscan binding assay, human RIPK1. The conditions noted are these: equilibrium dissociation constant. In a few lines:
as §1

The target in a further assay is human RIPK3 (Homo sapiens (Human), UniProt Q9Y572). The assay can be described thus: KINOMEscan binding assay, human RIPK3. The conditions noted are these: equilibrium dissociation constant. In a few lines: as §1
Assay [1] relates to Immortalised Mouse Dermal Fibroblasts (MDFs). The assay can be described thus: Inhibition of TSI induced necroptosis in mouse dermal fibroblasts (CellTitre-Glo). The conditions noted are these: Mus musculus, Fibroblast, 3 h, MDF cells, TSI cocktail (TNF, Smac mimetic, IDN-6556), read-out: Inhibition of TSI-induced necroptosis (IC50 cell-based assay) in MDF. The method, then: Cellular Assay: Screening Compounds for Inhibition of TSI Induced Necroptosis in, 384 well plate format. • Cell Line ID: Immortalised Mouse Dermal Fibroblasts (MDFs). • Cell Concentration (cells/well): Final cell density is 2200 cells per well. • Cell growth medium: DMEM medium+7.4% Fetal Bovine Serum (FBS). Cells are cultured in Corning 150 cm^2 tissue culture flasks with vented caps at 37° C./10% CO2. • Incubation: Plates were incubated for 30 minutes following addition of compounds and then 3 hours incubation with death stimuli (TSI cocktail) at 37° C./10% CO2 in a humidified incubator. • Compound concentration: 36 μM starting concentration, 1:3 dilution, 10 point • DMSO final concentration (% v/v): 0.3%. Compounds in TSI Cocktail (T: TNF; S: Smac Mimetic; I: IDN-6556) and their Final Concentrations: • rhTNF (100 ng/ml) • Compound A (500 nM)—Smac mimetic, Tetralogic and SYNthesis med chem • IDN-6556 (10 μM)—Selleckchem (S7775)
The cellular assay was carried out according to the following steps: • 1. Each well was prepared by sequential addition of: • a. 40 μL of cell suspension (5.5×10^4 cells/mL) was added to each well to provide a final cell concentration of 2,200 cells per well. • b. After 24 hours, DMSO (control; columns 1-2 and 23-24) or compound in DMSO—addition was performed using acoustic transfer of nL volumes of stock compound to give final test concentrations of 36, 12, 4, 1.3, 0.44, 0.148, 0.049, 0.016, 0.005 and 0.002 μM. All wells were backfilled with DMSO to a final total volume in the well of 100 nL. • c. Following compound/DMSO addition in step (b), Plates were incubated for 30 minutes at 37° C./10% CO2 in a humidified incubator and then 10 μL of 5×TSI cocktail (except to positive controls; columns 2 and 24) was added to each well. • 2. After 3 hours, plate was removed from the 37° C. incubator and equilibrated to room temperature for 15 minutes. • 3. 15 μL of room temperature CellTitre-Glo2™ (Promega™) was added to each well. • 4. Shook plates for 2 minutes (˜600 rpm) and incubated at room temperature for 15 minutes to allow signal to stabilise. • 5. Read luminescence readout on a plate reader.
Percent viability was calculated for each compound according to equation (2): […]
10 point titration curves were fitted with the 4 parameter logistic nonlinear regression model and the IC50 reported reflect the inflection point of the curve for curve fitting.
• Assay involving the TSI cocktail (T: TNF; S: Smac mimetic; I: IDN-6556): TSI treatment ensures that cells specifically undergo necroptotic cell death. TNF activates the TNF receptor, Smac mimetic directs the signal away from proinflammatory signaling and toward the RIPK1/RIPK3-mediated cell death pathways, and IDN-6556 (Caspase inhibitor) ensures that the apoptotic response is blocked leaving only the programmed necrosis response. The compounds' activity (solution in DMSO) tested in this TSI-induced assay was evaluated by determining the number of viable cells in culture by measuring the amount of ATP present as measured by CelltiterGlo.

Sequence of human RIPK1 (Q13546 whole entry): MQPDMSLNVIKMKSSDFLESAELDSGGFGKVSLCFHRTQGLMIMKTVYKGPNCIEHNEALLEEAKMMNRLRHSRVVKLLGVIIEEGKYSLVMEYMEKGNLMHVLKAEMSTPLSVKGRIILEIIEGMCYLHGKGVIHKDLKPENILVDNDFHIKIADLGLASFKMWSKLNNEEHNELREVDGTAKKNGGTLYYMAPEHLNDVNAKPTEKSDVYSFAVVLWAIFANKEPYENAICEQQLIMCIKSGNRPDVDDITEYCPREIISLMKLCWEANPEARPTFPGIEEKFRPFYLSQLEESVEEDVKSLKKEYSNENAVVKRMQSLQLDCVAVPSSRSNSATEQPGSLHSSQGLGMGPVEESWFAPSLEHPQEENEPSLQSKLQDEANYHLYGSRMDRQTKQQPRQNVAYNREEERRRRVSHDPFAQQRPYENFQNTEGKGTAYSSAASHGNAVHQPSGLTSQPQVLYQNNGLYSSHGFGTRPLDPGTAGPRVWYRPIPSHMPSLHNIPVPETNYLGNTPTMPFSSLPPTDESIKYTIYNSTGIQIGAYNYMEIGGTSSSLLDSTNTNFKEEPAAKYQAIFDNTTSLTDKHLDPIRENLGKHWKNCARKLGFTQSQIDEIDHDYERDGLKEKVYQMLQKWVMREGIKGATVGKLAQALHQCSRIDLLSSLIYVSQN
Sequence of mouse MLKL (full length) (Q9D2Y4 whole entry): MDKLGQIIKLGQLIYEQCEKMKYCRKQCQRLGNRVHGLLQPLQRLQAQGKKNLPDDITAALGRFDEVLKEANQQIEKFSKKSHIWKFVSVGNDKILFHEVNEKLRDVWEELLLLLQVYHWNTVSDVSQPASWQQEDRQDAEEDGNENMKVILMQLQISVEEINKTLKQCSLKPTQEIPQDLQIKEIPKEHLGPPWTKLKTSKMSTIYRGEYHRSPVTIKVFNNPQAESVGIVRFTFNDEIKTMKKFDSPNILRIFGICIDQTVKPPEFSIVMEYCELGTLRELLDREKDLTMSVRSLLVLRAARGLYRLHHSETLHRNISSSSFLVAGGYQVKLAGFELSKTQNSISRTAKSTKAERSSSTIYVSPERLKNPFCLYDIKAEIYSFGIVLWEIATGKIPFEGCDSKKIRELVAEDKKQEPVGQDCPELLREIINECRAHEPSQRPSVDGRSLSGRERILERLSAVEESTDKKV
Sequence of human RIPK3 (Q9Y572 whole entry): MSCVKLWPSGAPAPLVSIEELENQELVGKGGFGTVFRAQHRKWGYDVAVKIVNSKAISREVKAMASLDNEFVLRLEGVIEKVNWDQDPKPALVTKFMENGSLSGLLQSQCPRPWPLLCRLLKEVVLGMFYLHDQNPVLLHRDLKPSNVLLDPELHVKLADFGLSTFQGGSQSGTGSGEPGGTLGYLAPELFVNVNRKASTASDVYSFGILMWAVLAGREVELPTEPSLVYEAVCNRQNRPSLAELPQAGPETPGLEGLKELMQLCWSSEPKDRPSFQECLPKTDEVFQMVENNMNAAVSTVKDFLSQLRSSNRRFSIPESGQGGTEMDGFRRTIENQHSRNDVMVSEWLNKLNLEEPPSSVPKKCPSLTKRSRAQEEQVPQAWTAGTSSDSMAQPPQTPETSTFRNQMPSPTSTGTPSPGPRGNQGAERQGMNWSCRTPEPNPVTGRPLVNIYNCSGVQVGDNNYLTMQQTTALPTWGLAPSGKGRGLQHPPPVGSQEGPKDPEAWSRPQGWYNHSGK
Sequence of human MLKL (full length) (Q8NB16 whole entry): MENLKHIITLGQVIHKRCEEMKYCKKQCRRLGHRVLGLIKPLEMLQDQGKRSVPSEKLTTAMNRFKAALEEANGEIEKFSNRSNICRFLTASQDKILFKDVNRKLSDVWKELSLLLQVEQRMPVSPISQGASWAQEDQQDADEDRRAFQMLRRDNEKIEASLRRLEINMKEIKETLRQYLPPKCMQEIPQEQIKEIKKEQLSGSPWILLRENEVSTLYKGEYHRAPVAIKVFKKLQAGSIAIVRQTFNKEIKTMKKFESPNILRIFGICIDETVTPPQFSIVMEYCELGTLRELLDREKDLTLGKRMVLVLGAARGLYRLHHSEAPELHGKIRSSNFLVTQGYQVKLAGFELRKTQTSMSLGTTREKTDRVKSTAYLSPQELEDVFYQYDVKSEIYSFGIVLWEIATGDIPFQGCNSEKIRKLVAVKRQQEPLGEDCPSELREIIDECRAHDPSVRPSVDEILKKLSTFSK

With `Nc1ncc(-c2cnn(C3CCOCC3)c2)c2occ(-c3ccc(NS(=O)(=O)CC(F)(F)F)c(OCc4ccc(F)cc4)c3)c12` [Compound 11, N-(4-(4-amino-7-(1-(tetrahydro-2H-pyran-4-yl)-1H-pyrazol-4-yl)furo[3,2-c]pyridin-3-yl)-2-((4-fluorobenzyl)oxy)phenyl)-2,2,2-trifluoroethane-1-sulfonamide], the Kd at mouse MLKL (full length) is 0.001 to 0.1 µM; on human MLKL (full length), 0.001 to 0.1 µM; on human RIPK1, above 10 µM; at human RIPK3, above 10 µM. In assay [1], the concentration for half-maximal inhibition (IC50) is 1 to 10 µM.

In general, Kd refers to the constant that tells how readily two partners part at equilibrium. The IC50 is the concentration that inhibits the measured activity by half.
